Measured values reported in ChEMBL document CHEMBL1909046, “DrugMatrix in vitro pharmacology data”.

What was measured:
[1] = DRUGMATRIX: Glutamate, Kainate radioligand binding (ligand: [3H] Kainic acid); type: cell membranes, Rattus norvegicus, Wistar, Brain, Membrane; conditions: Not Active = under 50% inhibition at 10 µM
[2] = DRUGMATRIX: Phorbol Ester radioligand binding (ligand: [3H] PDBu); type: cell membranes, Mus musculus, ICR, Brain, Membrane; conditions: Not Active = under 50% inhibition at 10 µM
[3] = target: T1, Neuropeptide Y receptor type 2 (Homo sapiens, UniProt P49146); type: cell membranes, KAN-TS, Membrane; conditions: kan-ts; note: in other assays of this panel Not Active means under 50% inhibition at 10 µM
T1 sequence (P49146 whole entry): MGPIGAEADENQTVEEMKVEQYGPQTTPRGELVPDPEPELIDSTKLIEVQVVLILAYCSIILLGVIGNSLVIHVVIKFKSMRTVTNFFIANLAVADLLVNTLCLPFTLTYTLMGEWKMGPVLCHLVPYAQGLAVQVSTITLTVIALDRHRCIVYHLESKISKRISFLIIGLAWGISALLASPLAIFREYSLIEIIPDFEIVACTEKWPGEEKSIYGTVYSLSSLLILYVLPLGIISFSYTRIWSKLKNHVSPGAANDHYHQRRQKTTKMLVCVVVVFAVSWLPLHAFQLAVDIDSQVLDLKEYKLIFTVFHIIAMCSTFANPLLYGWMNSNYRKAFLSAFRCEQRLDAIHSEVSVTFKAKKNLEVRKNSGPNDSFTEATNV

[4] = target: Sodium-dependent noradrenaline transporter (Homo sapiens, UniProt P23975); experiment: DRUGMATRIX: Norepinephrine Transporter radioligand binding (ligand: [125I] RTI-55); type: cell membranes, MDCK, Membrane; conditions: Not Active = under 50% inhibition at 10 µM
Chain of Sodium-dependent noradrenaline transporter (P23975 whole entry): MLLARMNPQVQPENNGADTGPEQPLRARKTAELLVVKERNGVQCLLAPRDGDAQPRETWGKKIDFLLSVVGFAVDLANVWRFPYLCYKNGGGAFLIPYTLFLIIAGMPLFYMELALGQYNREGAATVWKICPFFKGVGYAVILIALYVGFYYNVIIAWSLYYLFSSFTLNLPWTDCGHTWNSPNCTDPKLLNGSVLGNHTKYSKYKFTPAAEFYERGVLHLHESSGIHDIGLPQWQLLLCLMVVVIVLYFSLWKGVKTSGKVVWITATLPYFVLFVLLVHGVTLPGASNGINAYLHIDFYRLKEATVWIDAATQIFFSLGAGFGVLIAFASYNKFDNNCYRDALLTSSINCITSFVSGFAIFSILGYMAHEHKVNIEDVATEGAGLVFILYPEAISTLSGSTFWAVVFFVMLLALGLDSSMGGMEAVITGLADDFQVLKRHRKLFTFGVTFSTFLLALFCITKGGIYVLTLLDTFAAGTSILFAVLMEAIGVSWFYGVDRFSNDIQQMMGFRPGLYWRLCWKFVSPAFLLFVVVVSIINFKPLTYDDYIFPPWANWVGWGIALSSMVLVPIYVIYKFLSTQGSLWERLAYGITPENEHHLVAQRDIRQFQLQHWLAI

Neutrophil elastase = target: T2, Neutrophil elastase (Homo sapiens, UniProt P08246); type: tissue-based;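 note: inhibition of neutrophil elastase enzyme activity, measured with a p-nitroanilide-linked peptide substrate; in other assays of this panel Not Active means under 50% inhibition at 10 µM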
T2 sequence (P08246 whole entry): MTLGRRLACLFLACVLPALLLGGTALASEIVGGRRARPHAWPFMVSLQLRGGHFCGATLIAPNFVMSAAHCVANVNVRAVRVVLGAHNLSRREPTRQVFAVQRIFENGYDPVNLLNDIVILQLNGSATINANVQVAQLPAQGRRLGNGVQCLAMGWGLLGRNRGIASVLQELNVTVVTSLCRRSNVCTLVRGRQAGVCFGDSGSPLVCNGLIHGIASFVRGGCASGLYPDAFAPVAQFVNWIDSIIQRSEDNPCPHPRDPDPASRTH

[5] = target: 5-hydroxytryptamine receptor 4 (Cavia porcellus, UniProt O70528); type: cell membranes, Dunkin-Hartley, Striatum, Membrane; note: in other assays of this panel Not Active means under 50% inhibition at 10 µM
Chain of 5-hydroxytryptamine receptor 4 (O70528 whole entry): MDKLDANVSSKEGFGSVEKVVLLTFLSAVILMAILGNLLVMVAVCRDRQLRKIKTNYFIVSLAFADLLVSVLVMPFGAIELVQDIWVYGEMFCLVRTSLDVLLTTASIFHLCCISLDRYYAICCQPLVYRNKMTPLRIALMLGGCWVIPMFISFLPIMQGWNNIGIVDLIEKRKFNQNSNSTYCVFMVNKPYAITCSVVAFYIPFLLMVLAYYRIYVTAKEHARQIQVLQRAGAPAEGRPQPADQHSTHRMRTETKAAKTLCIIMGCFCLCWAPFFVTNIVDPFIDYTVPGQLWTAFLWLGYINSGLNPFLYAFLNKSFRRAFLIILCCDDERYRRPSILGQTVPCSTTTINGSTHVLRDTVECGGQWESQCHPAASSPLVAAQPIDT

[6] = DRUGMATRIX: Sigma2 radioligand binding (ligand: [3H] Ifenprodil); type: cell membranes, Rattus norvegicus, Wistar, Brain, Membrane; conditions: Not Active = under 50% inhibition at 10 µM

## CC(c1cc2ccccc2s1)N(O)C(N)=O (stereo unspecified) [ZILEUTON]
[1]
  IC50: Not Active
  Ki: Not Active
[2]
  IC50: Not Active
  Ki: Not Active
[3]
  IC50: Not Active
[4]; mdck
  IC50: Not Active
Neutrophil elastase
  IC50: Not Active
[5]
  IC50: Not Active
[6]
  IC50: Not Active
  Ki: Not Active

## CCCCNc1ccc(C(=O)OCCN(C)C)cc1 [TETRACAINE]
[1]
  IC50: Not Active
  Ki: Not Active
[2]
  IC50: Not Active
  Ki: Not Active
[3]
  IC50: Not Active
[4]; mdck
  IC50: Not Active
Neutrophil elastase
  IC50: Not Active
[5]
  IC50: Not Active
[6]
  IC50: Not Active
  Ki: Not Active

## CC[C@@H](C(=O)[C@@H](C)[C@@H](O)[C@H](C)[C@@H]1O[C@@H]([C@@H](CC)C(=O)O)CC[C@@H]1C)[C@H]1O[C@]2(C=C[C@@H](O)[C@]3(CC[C@@](C)([C@H]4CC[C@](O)(CC)[C@H](C)O4)O3)O2)[C@H](C)C[C@@H]1C [SALINOMYCIN]
[1]
  IC50: Not Active
  Ki: Not Active
[2]
  IC50: Not Active
  Ki: Not Active
[3]
  IC50: Not Active
[4]; mdck
  IC50: Not Active
Neutrophil elastase
  IC50: Not Active
[5]
  IC50: Not Active
[6]
  IC50: Not Active
  Ki: Not Active

## CO[C@@H]1[C@@H](OC)[C@H](C)[C@@](O)(CC(=O)O)O[C@H]1[C@H](C)[C@H]1O[C@@]2(CC[C@@](C)([C@H]3CC[C@@](C)([C@@H]4O[C@@H]([C@H]5O[C@](C)(O)[C@H](C)C[C@@H]5C)C[C@@H]4O[C@@H]4C[C@H](OC)[C@@H](OC)[C@H](C)O4)O3)O2)C[C@H](O)[C@H]1C [MADURAMICIN ACID]
[1]
  IC50: Not Active
  Ki: Not Active
[2]
  IC50: Not Active
  Ki: Not Active
[3]
  IC50: Not Active
[4]; mdck
  IC50: Not Active
Neutrophil elastase
  IC50: Not Active
[5]
  IC50: Not Active
[6]
  IC50: Not Active
  Ki: Not Active

## CC(C)Cc1ccc([C@@H](C)C(=O)O)cc1 [(R)-IBUPROPHEN]
[1]
  IC50: Not Active
  Ki: Not Active
[2]
  IC50: Not Active
  Ki: Not Active
[3]
  IC50: Not Active
[4]; mdck
  IC50: Not Active
Neutrophil elastase
  IC50: Not Active
[5]
  IC50: Not Active
[6]
  IC50: Not Active
  Ki: Not Active

## NC(=O)N1C(=O)/C(=C(\O)c2cccs2)c2cc(Cl)ccc21 [TENIDAP]
[1]
  IC50: Not Active
  Ki: Not Active
[2]
  IC50: Not Active
  Ki: Not Active
[3]
  IC50: Not Active
[4]; mdck
  IC50: Not Active
Neutrophil elastase
  IC50: Not Active
[5]
  IC50: Not Active
[6]
  IC50: Not Active
  Ki: Not Active

## O=C1C(CC[S+]([O-])c2ccccc2)C(=O)N(c2ccccc2)N1c1ccccc1 (stereo unspecified) [SULFINPYRAZONE]
[1]
  IC50: Not Active
  Ki: Not Active
[2]
  IC50: Not Active
  Ki: Not Active
[3]
  IC50: Not Active
[4]; mdck
  IC50: Not Active
Neutrophil elastase
  IC50: Not Active
[5]
  IC50: Not Active
[6]
  IC50: Not Active
  Ki: Not Active

## CO[C@H]1/C=C/O[C@@]2(C)Oc3c(C)c(O)c4c(O)c(c(/C=N/N5CCN(C6CCCC6)CC5)c(O)c4c3C2=O)NC(=O)/C(C)=C\C=C\[C@H](C)[C@H](O)[C@@H](C)[C@@H](O)[C@@H](C)[C@H](OC(C)=O)[C@@H]1C [RIFAPENTINE]
[1]
  IC50: Not Active
  Ki: Not Active
[2]
  IC50: Not Active
  Ki: Not Active
[3]
  IC50: Not Active
[4]; mdck
  IC50: Not Active
Neutrophil elastase
  IC50: Not Active
[5]
  IC50: Not Active
[6]
  IC50: Not Active
  Ki: Not Active

## Cn1c(=O)c2nc[nH]c2n(C)c1=O.O [THEOPHYLLINE]
[1]
  IC50: Not Active
  Ki: Not Active
[2]
  IC50: Not Active
  Ki: Not Active
[3]
  IC50: Not Active
[4]; mdck
  IC50: Not Active
Neutrophil elastase
  IC50: Not Active
[5]
  IC50: Not Active
[6]
  IC50: Not Active
  Ki: Not Active

## CCCCOc1cc(CC2CNC(=O)N2)ccc1OC (stereo unspecified) [RO-201724]
[1]
  IC50: Not Active
  Ki: Not Active
[2]
  IC50: Not Active
  Ki: Not Active
[3]
  IC50: Not Active
[4]; mdck
  IC50: Not Active
Neutrophil elastase
  IC50: Not Active
[5]
  IC50: Not Active
[6]
  IC50: Not Active
  Ki: Not Active

## N#Cc1ccc(C(c2ccc(C#N)cc2)n2cncn2)cc1 [LETROZOLE]
[1]
  IC50: Not Active
  Ki: Not Active
[2]
  IC50: Not Active
  Ki: Not Active
[3]
  IC50: Not Active
[4]; mdck
  IC50: Not Active
Neutrophil elastase
  IC50: Not Active
[5]
  IC50: Not Active
[6]
  IC50: Not Active
  Ki: Not Active

## CN(C/C=C/C#CC(C)(C)C)Cc1cccc2ccccc12 [TERBINAFINE]
[1]
  IC50: Not Active
  Ki: Not Active
[2]
  IC50: Not Active
  Ki: Not Active
[3]
  IC50: Not Active
[4]; read-out: IC50
  IC50: 4.13 µM
[4]; read-out: Ki
  Ki: 4.1 µM
Neutrophil elastase
  IC50: Not Active
[5]
  IC50: Not Active
[6]; read-out: IC50
  IC50: 0.0354 µM
[6]; read-out: Ki
  Ki: 0.0218 µM

## O=C1Nc2ccc(Cl)cc2C(c2ccccc2Cl)=NC1O (stereo unspecified) [LORAZEPAM]
[1]
  IC50: Not Active
  Ki: Not Active
[2]
  IC50: Not Active
  Ki: Not Active
[3]
  IC50: Not Active
[4]; mdck
  IC50: Not Active
Neutrophil elastase
  IC50: Not Active
[5]
  IC50: Not Active
[6]
  IC50: Not Active
  Ki: Not Active
